Results taken from patent US8680269B2, “Pesticidal compositions” (Dow AgroSciences, LLC., priority 2009, dated 2014).

What was measured:
[1] = system: corn earworm (CEW; Helicoverpa zea); test: Insecticidal test for corn earworm, 128-well diet tray assay; assay type: in vivo; details: 144 h, 50 μg/cm2 on artificial diet, second instar larvae, six days at 25° C.
Procedure: (§1) Bioassays on corn earworm (CEW; Helicoverpa zea: Lepidoptera) were conducted using a 128-well diet tray assay. Three to five second instar CEW larvae were placed in each well (3 mL) of the diet tray that had been previously filled with 1 mL of artificial diet to which 50 μg/cm^2 of the test compound (dissolved in 50 μL of 90:10 acetone-water mixture) had been applied (to each of eight wells) and then allowed to dry. Trays were covered with a clear self-adhesive cover, and held at 25° C., 14:10 light-dark for six days. Percent mortality was recorded for the larvae in each well; activity in the eight wells was then averaged.

[2] = system: beet armyworm (BAW; Spodoptera exigua); test: Insecticidal test for beet armyworm, 128-well diet tray assay; assay type: in vivo; details: 144 h, 50 μg/cm2 on artificial diet, second instar larvae, six days at 25° C.
Procedure: as §1, with “beet armyworm (BAW; Spodoptera exigua:” for “corn earworm (CEW; Helicoverpa zea:”, “BAW” for “CEW”

Compound	mortality at 50 µg/cm2 [1]	mortality at 50 µg/cm2 [2]
CCc1cc(OC)ccc1NC(=S)N/N=C/c1ccc(-c2ncn(-c3ccc(OC(F)(F)F)cc3)n2)cc1 [Compound 111]	50 to 100%	50 to 100%
COc1cccc(NC(=S)N/N=C/c2ccc(-c3ncn(-c4ccc(OC(F)(F)F)cc4)n3)cc2)c1 [Compound 94]	50 to 100%	50 to 100%
Cc1ccc(C(C)NC(=S)N/N=C/c2ccc(-c3ncn(-c4ccc(OC(F)(F)F)cc4)n3)cc2)cc1 (stereo not shown) [Compound 144]	50 to 100%	50 to 100%
C=C(C)c1ccccc1NC(=S)N/N=C/c1ccc(-c2ncn(-c3ccc(OC(F)(F)F)cc3)n2)cc1 [Compound 91]	50 to 100%	50 to 100%
COCc1ccc(C(C)NC(=S)N/N=C/c2ccc(-c3ncn(-c4ccc(OC(F)(F)F)cc4)n3)cc2)cc1 (stereo not shown) [Compound 157]	50 to 100%	50 to 100%
Cc1ccc(NC(=S)N/N=C/c2ccc(-c3ncn(-c4ccc(OC(F)(F)F)cc4)n3)cc2)c(C)c1 [Compound 95]	50 to 100%	50 to 100%
FC(F)(F)Oc1ccc(-n2ccc(-c3ccc(/C=N/NC(=S)Nc4c(Cl)cccc4Cl)cc3)n2)cc1 [Compound 137]	50 to 100%	50 to 100%
CCN(/N=C/c1ccc(-c2ncn(-c3ccc(OC(F)(F)F)cc3)n2)cc1)C(=S)Nc1ccc(OC)cc1C [Compound 86]	50 to 100%	50 to 100%
COc1cc(C)cc(C)c1NC(=S)N/N=C/c1ccc(-c2ncn(-c3ccc(OC(F)(F)F)cc3)n2)cc1 [Compound 103]	50 to 100%	50 to 100%
CC(NC(=S)N/N=C/c1ccc(-c2ncn(-c3ccc(OC(F)(F)F)cc3)n2)cc1)c1ccc(Br)cc1 (stereo not shown) [Compound 146]	50 to 100%	50 to 100%
CC(C)c1cccc(C(C)C)c1NC(=S)N/N=C/c1ccc(-c2ncn(-c3ccc(OC(F)(F)F)cc3)n2)cc1 [Compound 107]	50 to 100%	50 to 100%
Cc1ccc(NC(=S)N/N=C/c2ccc(-c3ncn(-c4ccc(OC(F)(F)F)cc4)n3)cc2)c(C(C)C)c1 [Compound 96]	50 to 100%	50 to 100%
Cc1ccc(Cl)c(C)c1NC(=S)N/N=C/c1ccc(-c2ncn(-c3ccc(OC(F)(F)F)cc3)n2)cc1 [Compound 101]	50 to 100%	50 to 100%
FC(F)(F)Oc1ccc(-n2cnc(-c3ccc(/C=N/NC(=S)Nc4ccccc4I)cc3)n2)cc1 [Compound 60]	50 to 100%	50 to 100%
COc1ccc(C)cc1NC(=S)N/N=C/c1ccc(-c2ncn(-c3ccc(OC(F)(F)F)cc3)n2)cc1 [Compound 89]	50 to 100%	50 to 100%
Cc1cccc(C)c1NC(=S)N/N=C/c1ccc(-c2ccn(-c3ccc(OC(F)(F)F)cc3)c2)cc1 [Compound 134]	50 to 100%	50 to 100%
Cc1cccc(C)c1NC(=S)N/N=C/c1ccc(-c2cnn(-c3ccc(OC(F)(F)F)cc3)c2)cc1 [Compound 138]	50 to 100%	50 to 100%
FC(F)(F)Oc1ccc(-n2cnc(-c3ccc(/C=N/NC(=S)Nc4c(Br)cccc4Br)cc3)n2)cc1 [Compound 48]	50 to 100%	50 to 100%
COc1cccc(C(C)NC(=S)N/N=C/c2ccc(-c3ncn(-c4ccc(OC(F)(F)F)cc4)n3)cc2)c1 (stereo not shown) [Compound 153]	50 to 100%	50 to 100%
COC(=O)c1ccccc1NC(=S)N/N=C/c1ccc(-c2ncn(-c3ccc(OC(F)(F)F)cc3)n2)cc1 [Compound 84]	< 50%	< 50%
COc1ccc(C(C)NC(=S)N/N=C/c2ccc(-c3ncn(-c4ccc(OC(F)(F)F)cc4)n3)cc2)cc1C (stereo not shown) [Compound 149]	50 to 100%	50 to 100%
COc1cc(OC)c(NC(=S)N/N=C/c2ccc(-c3ncn(-c4ccc(OC(F)(F)F)cc4)n3)cc2)c(OC)c1 [Compound 88]	50 to 100%	50 to 100%
Cc1cc(C)c(NC(=S)N/N=C/c2ccc(-c3ncn(-c4ccc(OC(F)(F)F)cc4)n3)cc2)c(Cl)c1 [Compound 104]	50 to 100%	50 to 100%
C/C(=N\NC(=S)Nc1c(C)cccc1C)c1ccc(-c2cnn(-c3ccc(OC(F)(F)F)cc3)c2)cc1 [Compound 139]	50 to 100%	50 to 100%
COc1ccccc1C(C)NC(=S)N/N=C/c1ccc(-c2ncn(-c3ccc(OC(F)(F)F)cc3)n2)cc1 (stereo not shown) [Compound 148]	50 to 100%	50 to 100%

Compound	mortality at 50 µg/cm2 [1]	mortality at 50 µg/cm2 [2]
FC(F)(F)Oc1ccc(-n2cnc(-c3ccc(/C=N/NC(=S)NC4CCc5ccccc54)cc3)n2)cc1 (stereo not shown) [Compound 145]	50 to 100%	50 to 100%
CC(NC(=S)N/N=C/c1ccc(-c2ncn(-c3ccc(OC(F)(F)F)cc3)n2)cc1)c1cccnc1 (stereo not shown) [Compound 158]	50 to 100%	50 to 100%
COc1cc(F)c(NC(=S)N/N=C/c2ccc(-c3ncn(-c4ccc(OC(F)(F)F)cc4)n3)cc2)c(F)c1 [Compound 108]	50 to 100%	50 to 100%
FC(F)(F)Oc1ccc(-n2cnc(-c3ccc(/C=N/NC(=S)Nc4ncc(Cl)cc4Cl)cc3)n2)cc1 [Compound 113]	< 50%	< 50%
COc1cc(C)c(NC(=S)N/N=C/c2ccc(-c3ncn(-c4ccc(OC(F)(F)F)cc4)n3)cc2)c(C)c1 [Compound 116]	50 to 100%	50 to 100%
COc1ccc(NC(=S)N/N=C/c2ccc(-c3ncn(-c4ccc(OC(F)(F)C(F)(F)F)cc4)n3)cc2)c(C)c1 [Compound 122]	50 to 100%	50 to 100%
CCCCc1ccc(-n2cnc(-c3ccc(/C=N/NC(=S)Nc4c(C)cc(OC)cc4C)cc3)n2)cc1 [Compound 124]	50 to 100%	50 to 100%
Cc1cc(Cl)cc(C)c1NC(=S)N/N=C/c1ccc(-c2ncn(-c3ccc(OC(F)(F)F)cc3)n2)cc1 [Compound 114]	50 to 100%	50 to 100%
CCCN(/N=C/c1ccc(-c2ncn(-c3ccc(OC(F)(F)F)cc3)n2)cc1)C(=S)Nc1ccc(OC)cc1C [Compound 87]	< 50%	< 50%
COc1cc(Cl)c(NC(=S)N/N=C/c2ccc(-c3ncn(-c4ccc(OC(F)(F)F)cc4)n3)cc2)c(Cl)c1 [Compound 115]	50 to 100%	50 to 100%
Cc1cc(C)c(NC(=S)N/N=C/c2ccc(-c3ncn(-c4ccc(OC(F)(F)F)cc4)n3)cc2)c(C)n1 [Compound 106]	50 to 100%	50 to 100%
COC(=O)C1CC(c2ccc(/C=N/NC(=S)Nc3c(Cl)cccc3Cl)cc2)=NN1c1ccc(OC(F)(F)F)cc1 (stereo not shown) [Compound 131]	50 to 100%	50 to 100%
Fc1cccc(Br)c1NC(=S)N/N=C/c1ccc(-c2ncn(-c3ccc(OC(F)(F)F)cc3)n2)cc1 [Compound 105]	50 to 100%	50 to 100%
CC(C)(C)c1ccccc1NC(=S)N/N=C/c1ccc(-c2ncn(-c3ccc(OC(F)(F)F)cc3)n2)cc1 [Compound 83]	< 50%	< 50%
Cc1ccccc1C(C)NC(=S)N/N=C/c1ccc(-c2ncn(-c3ccc(OC(F)(F)F)cc3)n2)cc1 (stereo not shown) [Compound 147]	50 to 100%	50 to 100%
COc1ccc([C@@H](C)NC(=S)N/N=C/c2ccc(-c3ncn(-c4ccc(OC(F)(F)F)cc4)n3)cc2)cc1 [Compound 142]	50 to 100%	50 to 100%
Cc1ncccc1NC(=S)N/N=C/c1ccc(-c2ncn(-c3ccc(OC(F)(F)F)cc3)n2)cc1 [Compound 99]	50 to 100%	50 to 100%
FC(F)(F)Oc1ccc(N2CCC(c3ccc(/C=N/NC(=S)Nc4c(Cl)cccc4Cl)cc3)=N2)cc1 [Compound 141]	50 to 100%	50 to 100%
CC(NC(=S)N/N=C/c1ccc(-c2ncn(-c3ccc(OC(F)(F)F)cc3)n2)cc1)c1ccccc1 (stereo not shown) [Compound 152]	50 to 100%	50 to 100%
Cc1cc(F)cc(C)c1NC(=S)N/N=C/c1ccc(-c2ncn(-c3ccc(OC(F)(F)F)cc3)n2)cc1 [Compound 112]	50 to 100%	50 to 100%
CC(C)c1ccccc1NC(=S)N/N=C/c1ccc(-c2ncn(-c3ccc(OC(F)(F)F)cc3)n2)cc1 [Compound 80]	50 to 100%	50 to 100%
FC(F)(F)Oc1ccc(-n2cnc(-c3ccc(/C=N/NC(=S)NCc4ccsc4)cc3)n2)cc1 [Compound 154]	50 to 100%	50 to 100%
Cc1cc(C)c(NC(=O)N/N=C/c2ccc(-c3ncn(-c4ccc(OC(F)(F)F)cc4)n3)cc2)c(C)c1 [Compound 118]	50 to 100%	50 to 100%
FC(F)(F)Oc1ccc(-n2ccc(-c3ccc(/C=N/NC(=S)Nc4c(Cl)cccc4Cl)cc3)c2)cc1 [Compound 135]	50 to 100%	50 to 100%
COc1cccc(NC(=S)N/N=C/c2ccc(-c3ncn(-c4ccc(OC(F)(F)F)cc4)n3)cc2)c1C [Compound 90]	50 to 100%	50 to 100%
